Reference: patent publication US20210322396A1, “COMPOSITIONS WITH SYNERGISTIC PERMEATION ENHANCERS FOR DRUG DELIVERY” (Children's Medical Center Corporation, priority 2018, published 2021)
Where “and” joins values, the source holds several entries; their conditions need not be identical. Equal entries are not always repeated. Structures can show the parent of a compound that is named as a salt. Where two headings read alike, the source gives them in different places.

Key:
sodium current = settings: read-out: KI, inhibition of sodium current, cited from earlier work
action potentials = settings: read-out: median inhibitory concentration, amplitudes of action potentials, cited from earlier work
[1] = Concentration-response curve fitting and isobolographic analysis of CPEs on VCIP48; type: in vitro ADME, chinchilla
H. influenza = settings: cited from earlier work
S. pneumoniae = settings: cited from earlier work
physchem = settings: water
[2] = three-parameter hyperbolic fit of CPE concentration-VCIP48 curve

CCCCN1CCCCC1C(=O)Nc1c(C)cccc1C (stereo not drawn) [bupivacaine]
Ki (sodium current; in vitro): 25 µM | IC50 (action potentials; in vitro): 180 µM

NC1=N[C@H](O)[C@H]2[C@H]3O[C@]4(O)O[C@@H]([C@@H](O)[C@@]2(N1)[C@@H]4O)[C@]3(O)CO [TTX, Tetrodotoxin]
Ki (sodium current): 0.001 to 0.002 µM | IC50 (action potentials): 0.005 to 0.006 µM

CCCCN1CCCCC1C(=O)Nc1c(C)cccc1C (stereo not drawn) [BUP-fb, bupivacaine free base]
solubility limit (in pure LIM): ~10%

CCCCCCCCCCCCOS(=O)(=O)[O-].[Na+] [SDS, Sodium dodecyl sulfate]
Emax (peak VCIP48), derived experimentally ([1]; experimentally determined peak effect, sulfate): 0.4 mg and 0.40 ^b mg | concentration required to achieve VCIP48=0.24 mg (equivalent dose) ([1]; single CPE in CPPB): 10% | p (Hill coefficient) [1, 2]: 0.82 ^ | Emax (maximal VCIP48), derived from Equation (1) ([1]; three-parameter hyperbolic fit of CPE concentration-VCIP48 curve, sulfate): 0.65 mg and 0.65 ^a mg

O=C(O)c1cn(C2CC2)c2cc(N3CCNCC3)c(F)cc2c1=O [ciprofloxacin]
minimum inhibitory concentration (H. influenza): about 4 μg/mL | minimum inhibitory concentration (S. pneumoniae): about 4 μg/mL

CCCCN1CCCCC1C(=O)Nc1c(C)cccc1C (stereo not drawn) [BUP, bupivacaine hydrochloride]
Emax relative to that of LIM [1]: 9.76% | Emax relative to that of SDS [1]: 6.15% | CPE concentration at which the permeation enhancement effect plateaued ([1]; Cip permeation, CPPB): ~1% | concentration required to achieve VCIP48=0.22 mg (equivalent dose) ([1]; single CPE in CPPB): infinite | concentration required to achieve VCIP48=0.24 mg (equivalent dose) ([1]; single CPE in CPPB): infinite | concentration required to achieve a VCIP48 of 0.4 mg (equivalent dose) ([1]; single CPE in CPPB): infinite | Emax (maximal VCIP48), derived from Equation (1) [1, 2]: 0.04 mg | p (Hill coefficient) [1, 2]: 2.75 | soluble concentration (in 12%[P407-PBP] solution, weight by volume): up to 4% | effect of pH on solubility in water (pH of the formulation tuned in the range of 3 to 9): not affected | solubility (physchem): ≥ 20 mg/mL

C=C(C)[C@H]1CC=C(C)CC1 [LIM, limonene]
CPE concentration at which the permeation enhancement effect plateaued [1]: around 4% | Emax (maximal VCIP48), derived from Equation (1) [1]: 0.41 mg | concentration required to achieve VCIP48=0.22 mg (equivalent dose) [1]: ~1.8% | concentration required to achieve a VCIP48 of 0.4 mg (equivalent dose) [1]: ~4% | p (Hill coefficient) [1]: 5.33
